Assay results published in the NIST ThermoML archive (doi:10.1021/je600554h).
± gives the expanded uncertainty stated by the source.

Assay: xn = mol fraction of the nth substance listed
Details: 100 kPa, Liquid; for viscosity: Capillary tube (Ostwald / Ubbelohde) method

COC(C)(C)C [2-methoxy-2-methylpropane] + CCCCCCCC
Details	mass density [kg/m3]	viscosity [mPa·s]
298.15 K, x1 = 0.8975	729.408 ± 0.59	–
303.15 K, x1 = 0.1019	–	0.468 ± 0.009
303.15 K, x1 = 0.1059	696.633 ± 0.63	–
303.15 K, x1 = 0.2123	699.177 ± 0.62	–
303.15 K, x1 = 0.2189	–	0.447 ± 0.009
303.15 K, x1 = 0.3019	701.546 ± 0.62	–
303.15 K, x1 = 0.3026	–	0.43 ± 0.009
303.15 K, x1 = 0.4029	–	0.414 ± 0.009
303.15 K, x1 = 0.4099	704.666 ± 0.61	–
303.15 K, x1 = 0.4995	–	0.397 ± 0.008
303.15 K, x1 = 0.5053	707.798 ± 0.61	–
303.15 K, x1 = 0.6005	711.146 ± 0.6	–
303.15 K, x1 = 0.6099	–	0.382 ± 0.008
303.15 K, x1 = 0.6934	714.806 ± 0.6	–
303.15 K, x1 = 0.7072	–	0.367 ± 0.008
303.15 K, x1 = 0.7967	719.238 ± 0.6	–
303.15 K, x1 = 0.8975	724.303 ± 0.59	–
308.15 K, x1 = 0.1019	–	0.443 ± 0.009
308.15 K, x1 = 0.1059	692.484 ± 0.64	–
308.15 K, x1 = 0.2123	694.926 ± 0.63	–
308.15 K, x1 = 0.2189	–	0.425 ± 0.009
308.15 K, x1 = 0.3019	697.212 ± 0.62	–
308.15 K, x1 = 0.3026	–	0.409 ± 0.009
308.15 K, x1 = 0.4029	–	0.393 ± 0.008
308.15 K, x1 = 0.4099	700.213 ± 0.62	–
308.15 K, x1 = 0.4995	–	0.376 ± 0.008
308.15 K, x1 = 0.5053	703.231 ± 0.61	–
308.15 K, x1 = 0.6005	706.458 ± 0.61	–
308.15 K, x1 = 0.6099	–	0.362 ± 0.008
308.15 K, x1 = 0.6934	709.988 ± 0.6	–
308.15 K, x1 = 0.7967	714.261 ± 0.6	–
308.15 K, x1 = 0.8975	719.151 ± 0.6	–
313.15 K, x1 = 0.1019	–	0.42 ± 0.009
313.15 K, x1 = 0.1059	688.303 ± 0.64	–
313.15 K, x1 = 0.2123	690.652 ± 0.63	–
313.15 K, x1 = 0.2189	–	0.402 ± 0.009
313.15 K, x1 = 0.3019	692.842 ± 0.63	–
313.15 K, x1 = 0.3026	–	0.387 ± 0.008
313.15 K, x1 = 0.4029	–	0.374 ± 0.008
313.15 K, x1 = 0.4099	695.728 ± 0.62	–
313.15 K, x1 = 0.4995	–	0.358 ± 0.008
313.15 K, x1 = 0.5053	698.629 ± 0.62	–
313.15 K, x1 = 0.6005	701.736 ± 0.61	–
313.15 K, x1 = 0.6934	705.127 ± 0.61	–
313.15 K, x1 = 0.7967	709.24 ± 0.61	–
313.15 K, x1 = 0.8975	713.95 ± 0.6	–
318.15 K, x1 = 0.1019	–	0.398 ± 0.009
318.15 K, x1 = 0.1059	684.108 ± 0.65	–
318.15 K, x1 = 0.2123	686.345 ± 0.64	–
318.15 K, x1 = 0.2189	–	0.381 ± 0.008
318.15 K, x1 = 0.3019	688.444 ± 0.63	–
318.15 K, x1 = 0.3026	–	0.367 ± 0.008
318.15 K, x1 = 0.4029	–	0.355 ± 0.008
318.15 K, x1 = 0.4099	691.207 ± 0.63	–
318.15 K, x1 = 0.5053	693.985 ± 0.62	–
318.15 K, x1 = 0.6005	696.968 ± 0.62	–
318.15 K, x1 = 0.6934	700.224 ± 0.61	–
318.15 K, x1 = 0.7967	704.169 ± 0.61	–
318.15 K, x1 = 0.8975	708.696 ± 0.61	–
323.15 K, x1 = 0.1019	–	0.377 ± 0.008
323.15 K, x1 = 0.1059	679.876 ± 0.65	–
323.15 K, x1 = 0.2123	682.017 ± 0.65	–
323.15 K, x1 = 0.2189	–	0.361 ± 0.008
323.15 K, x1 = 0.3019	684.017 ± 0.64	–
323.15 K, x1 = 0.3026	–	0.349 ± 0.008
323.15 K, x1 = 0.4099	686.655 ± 0.63	–
323.15 K, x1 = 0.5053	689.306 ± 0.63	–
323.15 K, x1 = 0.6005	692.159 ± 0.62	–
323.15 K, x1 = 0.6934	695.271 ± 0.62	–
323.15 K, x1 = 0.7967	699.039 ± 0.61	–
328.15 K, x1 = 0.1019	–	0.359 ± 0.008
328.15 K, x1 = 0.1059	675.617 ± 0.66	–
328.15 K, x1 = 0.2123	677.665 ± 0.65	–
328.15 K, x1 = 0.2189	–	0.344 ± 0.008
328.15 K, x1 = 0.3019	679.549 ± 0.65	–
328.15 K, x1 = 0.4099	682.067 ± 0.64	–
328.15 K, x1 = 0.5053	684.587 ± 0.64	–
328.15 K, x1 = 0.6005	687.304 ± 0.63	–
328.15 K, x1 = 0.6934	690.272 ± 0.63	–
333.15 K, x1 = 0.1019	–	0.342 ± 0.008
333.15 K, x1 = 0.1059	671.333 ± 0.67	–
333.15 K, x1 = 0.2123	673.25 ± 0.66	–
333.15 K, x1 = 0.3019	675.046 ± 0.65	–
333.15 K, x1 = 0.4099	677.434 ± 0.65	–
333.15 K, x1 = 0.5053	679.825 ± 0.64	–
333.15 K, x1 = 0.6005	682.397 ± 0.64	–
338.15 K, x1 = 0.1059	667.018 ± 0.67	–
338.15 K, x1 = 0.2123	668.815 ± 0.66	–
338.15 K, x1 = 0.3019	670.514 ± 0.66	–
338.15 K, x1 = 0.4099	672.758 ± 0.65	–
343.15 K, x1 = 0.1059	662.68 ± 0.68	–
343.15 K, x1 = 0.2123	664.349 ± 0.67	–
343.15 K, x1 = 0.3019	665.923 ± 0.67	–
343.15 K, x1 = 0.4099	668.038 ± 0.66	–
348.15 K, x1 = 0.1059	658.279 ± 0.68	–
348.15 K, x1 = 0.2123	659.83 ± 0.68	–
348.15 K, x1 = 0.3019	661.299 ± 0.67	–
353.15 K, x1 = 0.1059	653.843 ± 0.69	–
353.15 K, x1 = 0.2123	655.28 ± 0.68	–
353.15 K, x1 = 0.3019	656.638 ± 0.68	–
358.15 K, x1 = 0.1059	649.405 ± 0.7	–
358.15 K, x1 = 0.2123	650.681 ± 0.69	–
358.15 K, x1 = 0.3019	651.917 ± 0.69	–
363.15 K, x1 = 0.1059	644.85 ± 0.7	–
363.15 K, x1 = 0.2123	646.031 ± 0.7	–
363.15 K, x1 = 0.3019	647.14 ± 0.69	–
